In patent EP2329817A1, “Retinoic acid receptor antagonists, miR-10a inhibitors and inhibitors of HOXB1 or HOXB3 repressors for treating pancreatic cancer” (Ernst-Moritz-Arndt-Universität Greifswald, priority 2009, dated 2011):
pIC50: −log10 of the molar value. Where “and” joins values, the source holds several entries; their conditions need not be identical. Identical values can stand only once.

What was measured:
PaTu-T cells [1] = assay: Zebrafish embryo xenotransplantation: invasion and metastatic behaviour of pretreated PaTu-T cells; type: in vivo, human
Protocol: Zebrafish (Danio rerio) (Tuebingen line, AIB strain (Albinos) and Tg (fli1:eGFP) were handled in compliance with local animal care regulations and standard protocols of the Netherlands and Germany. Fish were kept at 28°C in aquaria with day/night light cycles (10 h dark versus 14 h light periods). The developing embryos were kept in an incubator at constant temperatures.
The selective RARα antagonist Ro-41-5253 was purchased from Biomol International, dissolved in DMSO and cells were treated overnight prior to injections at a final concentration of 200 nM (50% inhibition at 60nM)^14,15. Retinoic acid (ATRA, Sigma) was added to cells ON at a final concentration of 1 µM.
Cells were stained with CM-Dil (red fluorescence) at a 1:1000 dilution according to the manufacturers protocol (Vybrant, Invitrogen). Cells were suspended in 67% DPBS for injection into embryos. 2dpf zebrafish embryos were dechorionated and tranquilized with tricaine (Sigma). An injection needle (15µm diameter) with a manual injector (Eppendorf; Celltram Vario) was used to inject ∼200 cells into the yolk sac of 2dpf zebrafish embryos. On average 80 embryos were injected for each treatment and embryos with detectable cell scatter 2 h after the transfer (and therefore presumably due to the transfer procedure) were excluded from further analysis. Presence of cells was checked after 2 h incubation at 31°C and embryos were subsequently kept at 35°C. We defined metastasis based on the number of fluorescent cells that were detected outside the yolk sac 2 days after the transfer. Presence of 5 or more cells was considered "metastasised" and percentages of metastasised fish in each experiment were counted. The occurence of micro-metastasis is indicated by cell clusters of ≥4 cells presumably originating from cell division. PaTu-S cells and ASPC1 cells were transfected ON with indicated concentrations of miR-10a siRNA in the presence of ICA-Fectin TM442 (Eurogentec, Belgium). Whole cell lysates were prepared 36h post-transfection and 40 µg of total lysates were separated on 7.5% PAA-gels and blotted with anti E-cadherin, α-catenin, β-catenin (all mAbs, Transduction Labs) and actin antibodies (mAb Sigma-Aldrich, Germany).
Morpholino antisense oligonucleotides were obtained from Gene Tools, LLC (OR, USA) and used as previously described^19. The miR-10a antisense Morpholino sequence is: […]. Standard control Morpholino was […]. Both miR-10a and control Morpholinos were fluorescein labeled. The siRNAs for human HOXB1, human HOXB3 and human RARα were purchased from Santa Cruz Biotechnology (HOXB1: sc-38686, HOXB3: sc-38690 and RARα: sc-29465). EndoPorter (Gene Tools, LLC) was used to deliver Morpholinos and siRNAs into cells and efficiencies for Morpholinos were checked by fluorescence microscopy to be >98%. For the miR-10a siRNA, the sense strand corresponds to […]. The sequence of control siRNA (miR-196a) was […] with the corresponding antisense sequence). 30 µl of each siRNA oligo (50 µM) were annealed by gradually cooling from 98°C to 20°C in a volume of 75 µl annealing buffer (50 mM Tris, pH 7.8, 100 mM NaCl RNAse free). The effect of miR-10a Morpholinos on miR-10a function was tested with a sensor construct: pCS2+ EGFP 4x miR-10 AS containing 4 copies of a miR-10a antisense sequence.

RARα = biological target: T1, RARα (Homo sapiens, UniProt P10276); details: literature references 14, 15; read-out: 50% inhibition; cited from earlier work
T1 sequence (P10276 1-462): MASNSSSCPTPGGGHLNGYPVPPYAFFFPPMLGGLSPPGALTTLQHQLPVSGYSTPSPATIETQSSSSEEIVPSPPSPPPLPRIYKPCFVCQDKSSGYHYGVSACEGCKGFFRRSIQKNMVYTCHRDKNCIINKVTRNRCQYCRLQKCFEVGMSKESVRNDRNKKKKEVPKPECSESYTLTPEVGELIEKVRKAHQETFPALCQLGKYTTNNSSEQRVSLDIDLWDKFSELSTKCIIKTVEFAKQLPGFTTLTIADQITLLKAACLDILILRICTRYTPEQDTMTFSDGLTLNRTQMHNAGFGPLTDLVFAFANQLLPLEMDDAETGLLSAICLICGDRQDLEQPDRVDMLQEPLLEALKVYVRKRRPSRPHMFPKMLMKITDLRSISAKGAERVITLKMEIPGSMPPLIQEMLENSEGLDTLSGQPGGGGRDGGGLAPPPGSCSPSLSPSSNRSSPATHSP

PaTu-T cells [2] = assay: Cell survival and cell cycle distribution by propidium iodine staining (FACS); type: cell-based, human
Excerpt: Targeting endogenous miR-10a with Morpholinos rendered PaTu-T-cells non-invasive and prevented metastatic behaviour in zebrafish embryos, whereas a control Morpholino had no such effect (Fig.4 B, Table1 and Supplemental Table 1). […] (analysed by propidium iodine (PI) staining, data not shown).
We used the selective RARα antagonist Ro-41-5253; to analyze its anti-migratory activity in an in vitro migration assay ("scratch assay") and in the zebrafish xenotransplantation model, respectively. […] Similar results were obtained when PaTu-T cells were treated with RAR -specific siRNAs (Supplemental Table 1 and Supplemental Fig. 1).
Supplemental Figure 3: Cell cycle analysis of RARα siRNA or Ro-415253 treated PaTu-T cells. Cells were treated with either DMSO control (A), RARα siRNA (B) or 200 nM Ro-415253 (C) and fixed after 24h with 70% EtOH. Following propidium iodine (PI) staining the cells were analysed by a LSR2 FACS sorter (Becton Dickinson). […] Gate P2 indicates cells in G0/1 phase, gate 3 represents cells in S phase and gate 4 represents Cells in M/G2 phase.

[3] = Experiment 1, Day 1, number of embryos
[4] = Experiment 1, Day 2, number of embryos
[5] = Experiment 1, Day 3, number of embryos
[6] = Experiment 2, Day 1, number of embryos
[7] = Experiment 2, Day 2, number of embryos
[8] = Experiment 2, Day 3, number of embryos

## CCCCCCCOc1cc2c(cc1/C(C)=C/c1ccc(C(=O)O)cc1)C(C)(C)CCS2(=O)=O [Ro-41-5253, Benzoic acid, 4-(2-(7-(heptyloxy)-3,4-dihydro-4,4-dimethyl-2H-1-benzothiopyran-6-yl)-1-propenyl)-, S,S-dioxide, (E)]
PaTu-T cells [1]; Experiment 1, number of embryos (equals the Day 1 total)
  total >5: 1
PaTu-T cells [1]; [3]
  Migration 5 to 20: 1
  Migration <5: 0
  Migration >20: 0
  total >5: 1
PaTu-T cells [1]; [4]
  Migration 5 to 20: 0
  Migration <5: 0
  Migration >20: 0
  total >5: 0
PaTu-T cells [1]; [5]
  Migration 5 to 20: 0
  Migration <5: 0
  Migration >20: 0
  total >5: 0
PaTu-T cells [1]; Experiment 1, summary line, percentage in brackets (of embryos alive)
  total >5: 1.4%
PaTu-T cells [1]; Experiment 2, number of embryos (equals the Day 1 total)
  total >5: 2
PaTu-T cells [1]; [6]
  Migration 5 to 20: 2
  Migration <5: 0
  Migration >20: 0
  total >5: 2
PaTu-T cells [1]; [7]
  Migration 5 to 20: 2
  Migration <5: 0
  Migration >20: 0
  total >5: 2
PaTu-T cells [1]; [8]
  Migration 5 to 20: 0
  Migration <5: 0
  Migration >20: 0
  total >5: 0
PaTu-T cells [1]; Experiment 2, summary line, percentage in brackets (of embryos alive)
  total >5: 2.9%
PaTu-T cells [1]; Table 1, pretreated PaTu-T cells transplanted into zebrafish embryos, average of 2-4 experiments
  Average % (observed metastasised embryos): 2.2%
PaTu-T cells [1]; average of experiments, PaTu-T
  %migration, Average: 2.2%
PaTu-T cells [1]; single experiments, PaTu-T, listed as RARαinhibitor
  %migration: 1.4% and 2.9%
RARα
  pIC50: 7.22
PaTu-T cells [2]; 24h, Ro-415253 at 200 nM, PI staining, FACS
  cell cycle distribution: No differences
PaTu-T cells [2]; propidium iodine (PI) staining
  general cell survival: no adverse affects
